Results reported in patent US6794415B2, “Biphenyl compounds and their use as oestrogenic agents” (Aventis Pharma S.A., priority 1996, dated 2004).

How the values were obtained:
[1] = biological target: T1, recombinant human oestrogen receptor (HOR) (Homo sapiens, UniProt P03372); assay: Human oestrogen receptor (HOR): displacement of tritiated oestradiol, relative bond affinity; format: binding; conditions: oestradiol = 100, RBA=100(CH)/(CX); for HOR long t relative bond affinity (RBA): incubation 0° C. for 24 hours (long t); for HOR short t relative bond affinity (RBA): incubation 0° C. for 3 hours (short t)
T1 construct: made in house; host or cells: SF9 insect cells (ATCC CRL1711), baculovirus
T1 sequence (P03372 1-595): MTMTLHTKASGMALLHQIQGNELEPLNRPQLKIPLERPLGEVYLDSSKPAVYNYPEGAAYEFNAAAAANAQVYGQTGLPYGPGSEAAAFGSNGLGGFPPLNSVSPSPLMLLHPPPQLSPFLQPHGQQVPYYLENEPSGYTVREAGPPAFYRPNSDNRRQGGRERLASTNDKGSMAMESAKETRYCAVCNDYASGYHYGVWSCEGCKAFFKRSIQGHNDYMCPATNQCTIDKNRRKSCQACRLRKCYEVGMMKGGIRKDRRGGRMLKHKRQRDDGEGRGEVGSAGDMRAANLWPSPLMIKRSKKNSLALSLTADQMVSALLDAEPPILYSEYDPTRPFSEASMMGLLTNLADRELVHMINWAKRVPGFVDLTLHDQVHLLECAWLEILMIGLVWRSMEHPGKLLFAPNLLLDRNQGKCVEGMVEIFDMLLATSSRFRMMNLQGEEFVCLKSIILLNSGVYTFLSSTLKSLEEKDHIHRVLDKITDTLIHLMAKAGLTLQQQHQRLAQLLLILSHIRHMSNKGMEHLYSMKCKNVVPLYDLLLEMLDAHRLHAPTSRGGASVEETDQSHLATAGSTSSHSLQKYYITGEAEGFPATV
From the text: Human Oestrogen Receptor (HOR)
A cytosolic extract of SF9 cells containing the recombinant human oestrogen receptor is obtained by overexpression in an insect-Baculovirus cell system, according to the general methodology described by N. R. WEBB et al. (Journal of Methods in Cell and Molecular Biology, (1990) Vol.2 No. 4, 173-188) and the application of which is described for the expression of human hormonal receptors, for example the human glucocorticoid receptor (G. SRINIVASAN et al. Molecular Endocrinology (1990) vol 4 No. 2 209-216).
The BaculoGold Transfection Kit (PharMingen, reference 21000K) is used to generate the recombinant baculovirus containing the cDNA fragment described in the expression vector HEGO by L. TORA et al. (The EMBO Journal (1989) vol. 8 No. 7 1981-1986), containing the coding region for the wild-type human oestrogen receptor with a glycine in position 400.
The recombinant virus thus obtained is used to express the oestrogen receptor in the SF9 insect cells (ATCC CRL1711), according to the known methodology mentioned previously.
2*10^7 SF9 cells are cultured in a 175 cm^2 “Falcon” flask in the TNM-FH “SIGMA” medium supplemented by 10% of foetal calf serum (FCS) and by 50 microgram/ml of gentamycin. After infection then incubation at 27° C. for 40 to 42 hours, the cells are lysed in 1 ml of lysis buffer (Tris 20 mM-HCl pH8, EDTA 0.5 mM, DTT 2 mM, Glycerol 20%, KCl 400 mM) with a freezing-thawing cycle which is repeated another two times. The supernatant, containing the recombinant human oestrogen receptor is kept in liquid nitrogen by 0.5 ml doses.
The supernatant is incubated at 0° C. for 24 hours (long t) or 3 hours (short t) with a constant concentration (T) of tritiated oestradiol in the presence of increasing concentrations of either unlabelled oestradiol (0-1000×10^−9M), or of unlabelled product to be tested (0-25000×10^−9M). The concentration of bound tritiated oestradiol (B) is then measured in each incubate by the technique of adsorption with carbon dextran.
(§1) Calculation of the Relative Bond Affinity (RBA):
(§2) The following two curves are drawn: the percentage of bound tritiated hormone 100×B/B0 as a function of the logarithm of the concentration of unlabelled reference hormone or as a function of the concentration of unlabelled test product.
(§3) The straight line of the equation
(§4) B0=concentration of bound tritiated hormone in the absence of any unlabelled product.
(§5) B=concentration of bound tritiated hormone in the presence of a concentration X of unlabelled product.
(§6) B min=concentration of bound tritiated hormone for an incubation of this tritiated hormone at a concentration (T) in the presence of a large excess of unlabelled reference hormone (1000×10^−9M) for the human receptor.
(§7) The intersections of the straight line I50 and the curves allow the evaluation of the concentrations of unlabelled reference hormone (CH) and of the unlabelled test product (CX) which inhibit by 50% the binding of the tritiated hormone on the receptor.
(§8) The relative bond affinity (RBA) of the test product is calculated by the equation: RBA=100(CH)/(CX).

[2] = biological target: T2, Oestrogen Receptor of a Rat's Uterus (ROR) (Rattus norvegicus, UniProt P06211); assay: Oestrogen receptor of a rat's uterus (ROR): displacement of tritiated oestradiol, relative bond affinity; format: binding; conditions: oestradiol = 100; RBA=100(CH)/(CX); rat uterus cytosol, incubation 0° C. for 24 hours
T2 construct: the uteri are removed, then homogenized at 0° C; from tissue; host or cells: rat uterus cytosol (ultracentrifugation supernatant of homogenate)
T2 sequence (P06211 1-600): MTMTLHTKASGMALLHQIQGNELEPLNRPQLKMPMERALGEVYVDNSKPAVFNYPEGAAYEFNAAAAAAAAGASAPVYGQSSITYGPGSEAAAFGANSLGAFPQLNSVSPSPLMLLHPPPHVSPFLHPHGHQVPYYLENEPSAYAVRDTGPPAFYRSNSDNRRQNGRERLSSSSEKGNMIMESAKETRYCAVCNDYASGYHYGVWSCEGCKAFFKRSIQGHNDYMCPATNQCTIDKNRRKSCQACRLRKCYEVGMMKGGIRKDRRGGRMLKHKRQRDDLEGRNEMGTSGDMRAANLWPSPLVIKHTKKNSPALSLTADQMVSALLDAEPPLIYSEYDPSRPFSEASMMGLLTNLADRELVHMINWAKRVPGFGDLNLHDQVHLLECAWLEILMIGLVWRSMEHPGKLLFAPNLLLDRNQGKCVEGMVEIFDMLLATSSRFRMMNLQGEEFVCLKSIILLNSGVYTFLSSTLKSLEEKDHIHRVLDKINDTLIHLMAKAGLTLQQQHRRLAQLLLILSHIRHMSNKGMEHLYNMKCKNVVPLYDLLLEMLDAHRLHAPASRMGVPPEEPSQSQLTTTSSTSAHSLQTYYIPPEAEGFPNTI
Procedure: Oestrogen Receptor of a Rat's Uterus (ROR):
Female rats of 280-300 g and castrated 24 hours beforehand, are sacrificed, the uteri are removed, then homogenized at 0° C., using a teflon-glass Potter in a buffered solution BS (10 mM Tris, 0.25 M saccharose, HCl pH 7.4) (1 g of tissue per 10 ml of BS). The homogenate is then ultracentrifuged (209,000 g×30mn.) at 0° C. The supernatant aliquots thus obtained are incubated at 0° C. for 24 hours, with a constant concentration (2.5 10^−9M) of tritiated oestrodiol in the presence of increasing concentrations either of unlabelled oestradiol (0-1000×10^−9M), or of unlabelled product to be tested […]. The concentration of bound tritiated oestradiol (B) is then measured in each incubate by the carbon-dextran adsorption technique.
as §1, §2, §3, §4, §5, §6, §7, §8

SMILES	HOR long t relative bond affinity (RBA) [1]	HOR short t relative bond affinity (RBA) [1]	ROR relative bond affinity (RBA) [2]
O=Cc1cc(Br)c(-c2ccc(O)cc2)c(Br)c1 [Example 1, 2,6-dibromo-4′-hydroxy-(1,1′-biphenyl)-4-carboxaldehyde]	5.5	–	–
OCc1cc(Br)c(-c2ccc(O)cc2)c(Br)c1 [Example 2, 2,6-dibromo-4′-hydroxy-(1,1′-biphenyl)-4-methanol]	74	425	12.5
CC(C)c1cc(CO)cc(Cl)c1-c1ccc(O)cc1 [Example 4, 2-chloro-4′-hydroxy-6-(1-methylethyl)-(1,1′-biphenyl)-4-methanol]	22	–	4
CCc1cc(C(C)C)c(-c2ccc(O)cc2)cc1C [Example 6, 4′-ethyl-5′-methyl-2′-(1-methylethyl)-(1,1′-biphenyl)-4-ol]	4.5	–	–
OCc1cc(Cl)c(-c2ccc(O)cc2)c(C(F)(F)F)c1 [Example 7, 2-chloro-4′-hydroxy-6-(trifluoromethyl)-(1,1′-biphenyl)-4-methanol]	50	–	9.5
Cc1c(C(C)O)cc(C(C)C)c(-c2ccc(O)cc2)c1Cl (stereo not drawn) [Example 13, 1-[2-chloro-4′-hydroxy-3-methyl-6-(1-methylethyl)-(1,1′-biphenyl-4-yl)]-ethanol]	7.5	24	0.8
O=[N+]([O-])c1cc(CO)cc(Br)c1-c1ccc(O)cc1 [Example 18, 2-bromo-4′-hydroxy-6-nitro-(1,1′-biphenyl)-4-methanol]	34	–	5
OCc1cc(Cl)c(-c2ccc(O)cc2)c(Cl)c1 [Example 24, 2,6-dichloro-4′-hydroxy-(1,1′-biphenyl)-4-methanol]	35	104	3
O=Cc1cc(Cl)c(-c2ccc(O)cc2)c(Cl)c1 [Example 25, 2,6-dichloro-4′-hydroxy-(1,1′-biphenyl)-4-carboxaldehyde]	5	12	–
OCc1c(Cl)c(Cl)c(-c2ccc(O)cc2)c(Cl)c1Cl [Example 26, 4′-hydroxy-2.3,5,6-tetrachloro-(1,1′-biphenyl)-4-methanol]	5.5	–	–
OCc1ccc(-c2ccc(O)cc2)c(C(F)(F)F)c1 [Example 28, 4′-hydroxy-2-trifluoromethyl-(1,1′-biphenyl)-4-methanol]	8	33	2
Cc1ccc(-c2ccc(O)cc2)c(C(F)(F)F)c1 [Example 29, 4′-methyl-2′-trifluoromethyl-(1,1′-biphenyl)-4-ol]	0.6	–	0.15
O=[N+]([O-])c1cc(CO)cc([N+](=O)[O-])c1-c1ccc(O)cc1 [Example 30, 2,6-dinitro-4′-hydroxy-(1,1′-biphenyl)-4-methanol]	5	24	2
OCc1cc(Cl)c(-c2ccc(O)c(Cc3ccccc3)c2)c(Cl)c1 [Example 36, 2,6-dichloro-4′-hydroxy-5′-(phenylmethyl)-(1,1′-biphenyl)-4-methanol]	0.07	–	8
